Reference: patent US20060110451A1, “Formulations of [1,4]diazepino[6,7,1-IJ]quinoline derivatives” (priority 2004, published 2006)
Read-outs that look alike come from different tables or passages of the source.

Legend:
[1] = Ascending multiple dose pharmacokinetics of enteric coated capsules in healthy subjects; format: in vivo, human; settings: human, plasma, po, healthy subjects
Experimental: Ascending multiple doses of 25, 50, 75, 100, 150, and 250 mg Compound A.HCl were administered as twice-daily regimen (q12h) for 14 days in cohorts of 8 healthy subjects (6 active and 2 placebo). Blood samples for Compound A.HCl analysis were obtained on days 1 and 14 within 2 hours of test article administration and at various time points from 0.5 to 48 hours after test article administration. Doses were administered orally after an overnight fast of at least 10 hours on these 2 days. Trough PK samples were collected on days 7, 10, and 12 to assess whether steady-state had been reached.
A total of 48 subjects contributed pharmacokinetic data for this analysis. […] FIGS. 4A and 4B show the relationship between Cmax vs. dose and AUC vs. dose, respectively.

[2] = Single ascending dose study; format: in vivo; settings: single oral doses of 500 mg
5-HT2C = target: T1, 5-HT2C (Homo sapiens, UniProt P28335); settings: cited from earlier work
T1 sequence (P28335 33-458): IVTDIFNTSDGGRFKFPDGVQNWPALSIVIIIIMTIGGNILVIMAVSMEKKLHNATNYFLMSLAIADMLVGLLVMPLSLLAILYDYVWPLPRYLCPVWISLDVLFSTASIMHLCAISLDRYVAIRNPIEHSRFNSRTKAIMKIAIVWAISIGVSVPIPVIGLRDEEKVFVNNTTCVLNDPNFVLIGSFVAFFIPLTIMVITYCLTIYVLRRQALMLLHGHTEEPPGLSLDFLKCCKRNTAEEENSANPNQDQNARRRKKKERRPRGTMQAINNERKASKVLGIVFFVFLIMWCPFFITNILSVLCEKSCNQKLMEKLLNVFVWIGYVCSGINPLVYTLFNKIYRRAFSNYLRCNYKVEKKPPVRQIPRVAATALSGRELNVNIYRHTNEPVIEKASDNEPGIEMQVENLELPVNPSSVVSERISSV

Cl.c1cc2c3c(c1)[C@H]1CCC[C@H]1CN3CCNC2 [Compound A.HCl, (9aR,12aS)-4,5,6,7,9,9a,10,11,12,12a-decahydrocyclopenta[c][1,4]diazepino[6,7,1-ij]quinoline hydrochloride]
AUC(0-t) ([1]; 100 mg, multiple oral doses (q12 h) 100 mg, day 14, read-out: AUCss (AUC0-12) (Geom. Mean)): 0.0492 µg·h/mL | AUC(0-t) ([1]; 100 mg, multiple oral doses (q12 h) 100 mg, day 14, read-out: AUCss (AUC0-12) (Mean)): ~0.0628 µg·h/mL | Cmax ([1]; 100 mg, multiple oral doses (q12 h) 100 mg, day 14, read-out: Cmax (Geom. Mean)): 6.45 ng/mL | Cmax ([1]; 100 mg, multiple oral doses (q12 h) 100 mg, day 14, read-out: Cmax (Mean)): 7.81 ng/mL | Tmax ([1]; 100 mg, multiple oral doses (q12 h) 100 mg, day 14, read-out: Tmax (Geom. Mean)): 5.3 h | Tmax ([1]; 100 mg, multiple oral doses (q12 h) 100 mg, day 14, read-out: Tmax (Mean)): 5.5 h | half-life ([1]; 100 mg, multiple oral doses (q12 h) 100 mg, day 14, read-out: t1/2 (Geom. Mean) (converted)): 7.72 h | half-life ([1]; 100 mg, multiple oral doses (q12 h) 100 mg, day 14, read-out: t1/2 (Mean) (converted)): 7.86 h | AUC(0-inf) ([1]; 100 mg, single oral dose 100 mg, day 1, read-out: AUC0-∞ (Geom. Mean)): 0.0472 µg·h/mL | AUC(0-inf) ([1]; 100 mg, single oral dose 100 mg, day 1, read-out: AUC0-∞ (Mean)): 0.0555 µg·h/mL | Cmax ([1]; 100 mg, single oral dose 100 mg, day 1, read-out: Cmax (Geom. Mean)): 3.64 ng/mL | Cmax ([1]; 100 mg, single oral dose 100 mg, day 1, read-out: Cmax (Mean)): 4.38 ng/mL | Tmax ([1]; 100 mg, single oral dose 100 mg, day 1, read-out: Tmax (Geom. Mean)): 5.3 h | Tmax ([1]; 100 mg, single oral dose 100 mg, day 1, read-out: Tmax (Mean)): 5.5 h | half-life ([1]; 100 mg, single oral dose 100 mg, day 1, read-out: t1/2 (Geom. Mean) (converted)): 9.31 h | half-life ([1]; 100 mg, single oral dose 100 mg, day 1, read-out: t1/2 (Mean) (converted)): 9.9 h | AUC(0-t) ([1]; 150 mg, multiple oral doses (q12 h) 150 mg, day 14, read-out: AUCss (AUC0-12) (Geom. Mean)): 0.0907 µg·h/mL | AUC(0-t) ([1]; 150 mg, multiple oral doses (q12 h) 150 mg, day 14, read-out: AUCss (AUC0-12) (Mean)): ~0.11 µg·h/mL | Cmax ([1]; 150 mg, multiple oral doses (q12 h) 150 mg, day 14, read-out: Cmax (Geom. Mean)): 10.7 ng/mL | Cmax ([1]; 150 mg, multiple oral doses (q12 h) 150 mg, day 14, read-out: Cmax (Mean)): 13.1 ng/mL | Tmax ([1]; 150 mg, multiple oral doses (q12 h) 150 mg, day 14, read-out: Tmax (Geom. Mean)): 5 h | Tmax ([1]; 150 mg, multiple oral doses (q12 h) 150 mg, day 14, read-out: Tmax (Mean)): 5.2 h | half-life ([1]; 150 mg, multiple oral doses (q12 h) 150 mg, day 14, read-out: t1/2 (Geom. Mean) (converted)): 7 h | half-life ([1]; 150 mg, multiple oral doses (q12 h) 150 mg, day 14, read-out: t1/2 (Mean) (converted)): 7.04 h | AUC(0-inf) ([1]; 150 mg, single oral dose 150 mg, day 1, read-out: AUC0-∞ (Geom. Mean)): 0.0553 µg·h/mL | AUC(0-inf) ([1]; 150 mg, single oral dose 150 mg, day 1, read-out: AUC0-∞ (Mean)): 0.0702 µg·h/mL | Cmax ([1]; 150 mg, single oral dose 150 mg, day 1, read-out: Cmax (Geom. Mean)): 3.67 ng/mL | Cmax ([1]; 150 mg, single oral dose 150 mg, day 1, read-out: Cmax (Mean)): 5.05 ng/mL | Tmax ([1]; 150 mg, single oral dose 150 mg, day 1, read-out: Tmax (Geom. Mean)): 5.6 h | Tmax ([1]; 150 mg, single oral dose 150 mg, day 1, read-out: Tmax (Mean)): 5.7 h | half-life ([1]; 150 mg, single oral dose 150 mg, day 1, read-out: t1/2 (Geom. Mean) (converted)): 9 h | half-life ([1]; 150 mg, single oral dose 150 mg, day 1, read-out: t1/2 (Mean) (converted)): 9.08 h | AUC(0-t) ([1]; 250 mg, multiple oral doses (q12 h) 250 mg, day 14, read-out: AUCss (AUC0-12) (Geom. Mean)): 0.218 µg·h/mL | AUC(0-t) ([1]; 250 mg, multiple oral doses (q12 h) 250 mg, day 14, read-out: AUCss (AUC0-12) (Mean)): ~0.235 µg·h/mL | Cmax ([1]; 250 mg, multiple oral doses (q12 h) 250 mg, day 14, read-out: Cmax (Geom. Mean)): 25.6 ng/mL | Cmax ([1]; 250 mg, multiple oral doses (q12 h) 250 mg, day 14, read-out: Cmax (Mean)): 26.8 ng/mL | Tmax ([1]; 250 mg, multiple oral doses (q12 h) 250 mg, day 14, read-out: Tmax (Geom. Mean)): 5.9 h | Tmax ([1]; 250 mg, multiple oral doses (q12 h) 250 mg, day 14, read-out: Tmax (Mean)): 6.2 h | half-life ([1]; 250 mg, multiple oral doses (q12 h) 250 mg, day 14, read-out: t1/2 (Geom. Mean) (converted)): 6.99 h | half-life ([1]; 250 mg, multiple oral doses (q12 h) 250 mg, day 14, read-out: t1/2 (Mean) (converted)): 7.12 h | AUC(0-inf) ([1]; 250 mg, single oral dose 250 mg, day 1, read-out: AUC0-∞ (Geom. Mean)): 0.0847 µg·h/mL | AUC(0-inf) ([1]; 250 mg, single oral dose 250 mg, day 1, read-out: AUC0-∞ (Mean)): 0.0955 µg·h/mL | Cmax ([1]; 250 mg, single oral dose 250 mg, day 1, read-out: Cmax (Geom. Mean)): 5.91 ng/mL | Cmax ([1]; 250 mg, single oral dose 250 mg, day 1, read-out: Cmax (Mean)): 6.27 ng/mL | Tmax ([1]; 250 mg, single oral dose 250 mg, day 1, read-out: Tmax (Geom. Mean)): 5.9 h | Tmax ([1]; 250 mg, single oral dose 250 mg, day 1, read-out: Tmax (Mean)): 6 h | half-life ([1]; 250 mg, single oral dose 250 mg, day 1, read-out: t1/2 (Geom. Mean) (converted)): 9.91 h | half-life ([1]; 250 mg, single oral dose 250 mg, day 1, read-out: t1/2 (Mean) (converted)): 10.4 h | dose proportionality of exposure [2]: signs of nonlinearity | 5-HT2C agonist activity (5-HT2C): potent 5-HT2C agonist
